From US20250353816A1, “QUINOLINES AS MODULATORS OF POLRMT” (Pretzel Therapeutics, Inc., priority 2024, published 2025) come the findings set out here.

In this experiment the target is POLRMT (Homo sapiens (Human), UniProt O00411). As to the kind of experiment: homogeneous TR-FRET assay of mitochondrial transcription (inhibition of POLRMT). Type of experiment: biochemical. The conditions noted are these: 7.5 nM POLRMT, 15 nM TFB2M, 30 nM TFAM, 60 minutes at 37° C. The method, then: The inhibitory activity of the compounds of the present invention against POLRMT were determined by assays based on Bergbrede, T., et al., “An adaptable high-throughput technology enabling the identification of specific transcription modulators,” SLAC Discov., 22, 378-386 (2017).
Chain of POLRMT (O00411 42-1230): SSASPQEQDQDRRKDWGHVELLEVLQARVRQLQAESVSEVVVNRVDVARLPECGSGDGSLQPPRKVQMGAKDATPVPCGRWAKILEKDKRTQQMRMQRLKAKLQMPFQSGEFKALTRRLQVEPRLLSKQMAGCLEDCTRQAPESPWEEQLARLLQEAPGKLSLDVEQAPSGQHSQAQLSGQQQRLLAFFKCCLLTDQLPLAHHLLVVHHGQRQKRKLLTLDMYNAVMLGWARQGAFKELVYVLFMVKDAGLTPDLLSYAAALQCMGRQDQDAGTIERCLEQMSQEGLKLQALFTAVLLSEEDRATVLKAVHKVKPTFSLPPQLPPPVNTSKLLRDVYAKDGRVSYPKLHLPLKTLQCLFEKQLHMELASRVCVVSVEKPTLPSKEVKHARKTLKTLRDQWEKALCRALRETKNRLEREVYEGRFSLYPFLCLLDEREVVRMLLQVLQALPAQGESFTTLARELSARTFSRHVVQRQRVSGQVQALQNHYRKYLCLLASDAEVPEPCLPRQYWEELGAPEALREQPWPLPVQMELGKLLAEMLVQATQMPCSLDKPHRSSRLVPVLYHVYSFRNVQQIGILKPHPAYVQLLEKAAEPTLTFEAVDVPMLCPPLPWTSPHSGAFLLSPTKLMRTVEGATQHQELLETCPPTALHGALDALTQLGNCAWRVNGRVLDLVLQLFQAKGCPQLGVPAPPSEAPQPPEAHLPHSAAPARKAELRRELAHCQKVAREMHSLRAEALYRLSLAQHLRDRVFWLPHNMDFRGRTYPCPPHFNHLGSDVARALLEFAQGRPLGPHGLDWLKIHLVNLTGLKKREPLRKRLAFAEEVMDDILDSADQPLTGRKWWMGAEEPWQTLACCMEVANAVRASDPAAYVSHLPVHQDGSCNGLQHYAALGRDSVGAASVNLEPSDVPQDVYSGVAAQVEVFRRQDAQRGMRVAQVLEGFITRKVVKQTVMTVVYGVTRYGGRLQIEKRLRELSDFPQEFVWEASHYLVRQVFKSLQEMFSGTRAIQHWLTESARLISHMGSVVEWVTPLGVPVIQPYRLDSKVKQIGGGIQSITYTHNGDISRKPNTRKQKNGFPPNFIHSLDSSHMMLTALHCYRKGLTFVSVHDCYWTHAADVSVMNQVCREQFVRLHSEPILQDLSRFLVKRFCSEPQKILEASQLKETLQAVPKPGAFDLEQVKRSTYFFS
The ability of some compounds of the present invention to inhibit POLRMT were determined in a homogeneous TR-FRET Assay using high-throughput screening in a 384-well plate format. This method is used to monitor the activity of mitochondrial transcription through measurement of its product, a 407 bp long RNA transcript. Detection of the product is facilitated by hybridization of two DNA-oligonucleotide probes to specific and adjacent sequences within the RNA product sequence. Upon annealing of the probes, two fluorophores are coupled directly to an acceptor nucleotide probe (ATTO647, 5′), or introduced via a coupled streptavidin with a biotinylated donor nucleotide probe (Europium cryptate) that is brought into sufficient proximity to serve as a fluorescence-donor-acceptor pair. Thus, a FRET signal at 665 nm is generated upon excitation at 340 nm.
Proteins used as transcription factors (POLRMT: NP_005026.3, TFAM: NP_003192.1, TFB2M: NP_071761.1) are diluted from their stocks to working concentrations of 1 μM, 20 μM and 4 μM respectively, in a dilution buffer containing 20 mM Tris-HCl (pH 8.0), 200 mM NaCl, 10% (v/v) glycerol, 1 mM Dithiothreitol (DTT), 0.5 mM EDTA.
DNA template is a pUC18 plasmid with the mitochondrial light strand promotor sequence (1-477) cloned between HindIII and BamHI sites. The DNA template is restriction linearized proximal to the promotor 3′-end (pUC-LSP).
The reaction mixture (10 uL) containing 7.5 nM POLRMT, 15 nM of TFB2M, 30 nM of TFAM, 0.5 nM of DNA template and 500 μM nucleotide triphosphate mix (NTPs) in a reaction buffer (containing 10 mM Tris-HCl (pH 7.5), 10 mM MgCl2, 40 mM NaCl, 10 mM DTT, 0.005% (w/v) Tween-20, 160 units/ml Rnase inhibitor and 0.1 mg/mL BSA) are dispensed to compounds in microplates, using a Thermo Multidrop® dispenser, and incubated at 37° C. in a VWR INCU-Line incubator for 60 minutes after mixing. No nucleotide triphosphate mix is added to negative control samples. Microplates with compounds to be tested in the assay are prepared from 10 mM compound stocks in 100% DMSO, equal amounts of DMSO without any compound are added to positive control and negative control samples.
During the incubation, a mix of the detection reagents is prepared in a buffer such that the enzymatic reaction is terminated due to chelating of Mg-ions and increased ionic strength, containing 50 mM Tris-HCl (pH 7.5), 700 mM NaCl, 20 mM EDTA, and 0.01% (w/v) Tween-20. Europium-streptavidin is pre-incubated with a 200-fold molar excess of a random sequence oligonucleotide to block unspecific binding of oligo, for two hours at ambient temperature in the dark. Afterwards, the blocked Europium-streptavidin is kept on ice until use.
At the end of the enzymatic reaction time, 5 μL detection oligo mix in the detection buffer is added, and assay plates are mixed and kept at ambient temperature for one hour, protected from light. The concentration of the Acceptor nucleotide oligo (e.g., ATTO647N-5′-[…]-3′ (SEQ ID NO: 1)) and Donor nucleotide oligo (e.g., bio-5′-AACACATCTCT(-bio)GCCAAACCCCA-bio-3′ (SEQ ID NO: 2)) in each assay well is 1 nM, and 3 nM, respectively.
After incubation with oligo mix, 5 μL of pre-blocked Europium-streptavidin reagent is dispensed to each assay well, assay plates are again mixed and kept at ambient temperature for one hour, protected from light.
The generated signal is measured with BMG Pherastar microtiter plate reader with a TRF light unit, using excitation at 340 nm, an integration time of 200 μs, and a delay time of […], before detection at 620 nm and 665 nm. The ratio of donor- and acceptor-fluorescence is used as a measure of the generated transcript product (i.e. enzymatic activity).
(In general: TR-FRET usually uses a lanthanide donor and a delayed reading to cut background.)

SMILES strings stand for the structures.

`Cc1ccccc1-c1ccnc2cc(CC(C)C(=O)N3CCCCC3)ccc12` (single isomer, unassigned) [Example 34, 2-methyl-1-(piperidin-1-yl)-3-(4-(o-tolyl)quinolin-7-yl)propan-1-one]: the IC50 stood at 2 µM.
With `Cc1ccccc1-c1ccnc2cc(CC(C)C(=O)N3CCCCC3)ccc12` (single isomer, unassigned) [Example 35, 2-methyl-1-(piperidin-1-yl)-3-(4-(o-tolyl)quinolin-7-yl)propan-1-one], the IC50 stood at 70 µM.
To `Cc1ccccc1-c1ccnc2cc(C(C)CC(=O)N(C)C)ccc12` (single isomer, unassigned) [Example 37, N,N-dimethyl-3-(4-(o-tolyl)quinolin-7-yl)butanamide] belongs 79 µM; to `Cc1ccccc1-c1ccnc2cc(C(C)CC(=O)N(C)C)ccc12` (single isomer, unassigned) [Example 38, N,N-dimethyl-3-(4-(o-tolyl)quinolin-7-yl)butanamide], 37 µM.
To `Cc1ccccc1-c1ccnc2cc(NC(C)C(=O)N(C)C)ccc12` (single isomer, unassigned) [Example 48, N,N-dimethyl-2-((4-(o-tolyl)quinolin-7-yl)amino)propanamide] belongs more than 100 µM.
To `Cc1ccccc1-c1ccnc2cc(NC(C)C(=O)N(C)C)ccc12` (single isomer, unassigned) [Example 49, N,N-dimethyl-2-((4-(o-tolyl)quinolin-7-yl)amino)propanamide] belongs 10 µM; to `Cc1ccccc1-c1ccnc2cc(NC(C)C(=O)N3CCOCC3)ccc12` (single isomer, unassigned) [Example 50, 1-morpholino-2-((4-(o-tolyl)quinolin-7-yl)amino)propan-1-one], 2 µM; to `Cc1ccccc1-c1ccnc2cc(NC(C)C(=O)N3CCOCC3)ccc12` (single isomer, unassigned) [Example 51, 1-morpholino-2-((4-(o-tolyl)quinolin-7-yl)amino)propan-1-one], more than 100 µM.
Compound `Cc1ccccc1-c1ccnc2cc(NC(C)C(=O)N3CCCCC3)ccc12` (single isomer, unassigned) [Example 52, 1-(piperidin-1-yl)-2-((4-(o-tolyl)quinolin-7-yl)amino)propan-1-one] registered a half-inhibitory concentration (IC50) of more than 100 µM.
To `Cc1ccccc1-c1ccnc2cc(NC(C)C(=O)N3CCCCC3)ccc12` (single isomer, unassigned) [Example 53, 1-(piperidin-1-yl)-2-((4-(o-tolyl)quinolin-7-yl)amino)propan-1-one] belongs 3 µM; to `COC(=O)c1ccc2c(-c3ccccc3C)ccnc2c1` [Example 1, methyl 4-(o-tolyl)quinoline-7-carboxylate], 3 µM.
Compound `Cc1ccccc1-c1ccnc2cc(C(N)=O)ccc12` [Example 2, 4-(o-tolyl)quinoline-7-carboxamide] yielded an IC50 of more than 100 µM.
To `CNC(=O)c1ccc2c(-c3ccccc3C)ccnc2c1` [Example 3, N-methyl-4-(o-tolyl)quinoline-7-carboxamide] belongs 26 µM.
Turning to `Cc1ccccc1-c1ccnc2cc(C(=O)N(C)C)ccc12` [Example 4, N,N-dimethyl-4-(o-tolyl)quinoline-7-carboxamide], the IC50 is more than 100 µM.
The figure for `Cc1ccccc1-c1ccnc2cc(C(=O)N(C)Cc3ccccc3)ccc12` [Example 5, N-benzyl-N-methyl-4-(o-tolyl)quinoline-7-carboxamide] is more than 100 µM.
The figure for `Cc1ccccc1-c1ccnc2cc(C(=O)NCc3ccccc3)ccc12` [Example 6, N-benzyl-4-(o-tolyl)quinoline-7-carboxamide] is 90 µM.
To `Cc1ccccc1-c1ccnc2cc(C(=O)N3CCOCC3)ccc12` [Example 7, morpholino-[4-(o-tolyl)-7-quinolyl]methanone] belongs more than 100 µM; to `Cc1ccccc1-c1ccnc2cc(C(=O)N3CCN(C)CC3)ccc12` [Example 8, (4-methylpiperazin-1-yl)-[4-(o-tolyl)-7-quinolyl]methanone], more than 100 µM.

Broadly, the IC50 is the midpoint of a concentration-inhibition curve. A higher IC50 goes with lower potency.
